Each structure is given as a SMILES string. In brackets after ≈: the same amount, converted by molar mass. Activity calls are given as the source filed them.

Experiment [1] deals with Botrytis cinerea. Briefly: Antifungal activity against Botryotinia fuckeliana after 72 hr by 96-well microbioassay. The format is functional.
Experiment [2] has as its system Fusarium oxysporum. Briefly: Antifungal activity against Fusarium oxysporum assessed as growth inhibition at 1 mg/ml after 72 hr by paper disk diffusion method. The format is functional. Conditions: read-out: DIZ. On the technique in general: Agar diffusion results depend on both activity and mobility in agar.
Experiment [3] relates to Botrytis cinerea. The experiment is described as follows: Antifungal activity against Botryotinia fuckeliana assessed as growth inhibition at 1 mg/ml after 72 hr by paper disk diffusion method. In kind it is functional. Conditions: read-out: DIZ.
Experiment [4] has as its system Fusarium oxysporum. The experiment is described as follows: Inhibition of conidial germination of Fusarium oxysporum at 10 ug/ml after 48 hr by microscopy. The format is functional.
Experiment [5] relates to Botrytis cinerea. The experiment is described as follows: Inhibition of conidial germination of Botryotinia fuckeliana at 10 ug/ml after 48 hr by microscopy. In kind it is functional.
In experiment [6] the test system is Fusarium oxysporum. The experiment is described as follows: Inhibition of conidial germination of Fusarium oxysporum at 100 ug/ml after 8 days by microscopy. The format is functional, organism-based.
Experiment [7] concerns Botrytis cinerea. Briefly: Inhibition of conidial germination of Botryotinia fuckeliana at 50 ug/ml after 8 days by microscopy. The format is functional, organism-based.
Experiment [8] relates to Fusarium oxysporum. The experiment is described as follows: Inhibition of mycelial growth of Fusarium oxysporum after […]. The format is functional, organism-based.
Experiment [9] has as its system Botrytis cinerea. Briefly: Inhibition of mycelial growth of Botryotinia fuckeliana after […]. In kind it is functional, organism-based.
The test system of experiment [10] is Fusarium oxysporum. The experiment is described as follows: Inhibition of conidial germination of Fusarium oxysporum after 8 days by microscopy. In kind it is functional, organism-based. Conditions: 192 h.
Experiment [11] deals with Botrytis cinerea. Briefly: Inhibition of conidial germination of Botryotinia fuckeliana after 8 days by microscopy. Conditions: 192 h. The format is functional, organism-based.
The subject of experiment [12] is Fusarium oxysporum. The experiment is described as follows: Antifungal activity against Fusarium oxysporum after 72 hr by 96-well microbioassay. The format is functional.

For the compound `CCNC(c1ccccc1-c1cn(-c2ccccc2)nc1-c1ccc(C)cc1)C(C)C` (stereo unspecified), the MIC with Botrytis cinerea [1] was 25 µg/mL (≈ 61 µM); in the experiment on Fusarium oxysporum [12], 36 µg/mL (≈ 87.9 µM). Besides, the results for the zone of inhibition at 1000 µg/mL in the experiment with Fusarium oxysporum [2] and in the experiment on Botrytis cinerea [3] were 23.6 mm and 26 mm, respectively. Also, the inhibition at 10 µg/mL in the experiment with Fusarium oxysporum [4] was determined as 20%; with Botrytis cinerea [5] it was 85%. Besides, the inhibition entry with Fusarium oxysporum [6] and in the experiment on Botrytis cinerea [7] was “Active” in each case. The IC50 was found to be 17.8 µg/mL (≈ 43.4 µM) with Fusarium oxysporum [8], 6.8 µg/mL (≈ 16.6 µM) with Botrytis cinerea [9], 40.8 µg/mL (≈ 99.6 µM) with Fusarium oxysporum [10] and 7.3 µg/mL (≈ 17.8 µM) with Botrytis cinerea [11].
For `C[C@@H]1[C@H](O)[C@@H](C)/C=C/C=C/C=C/C=C/C=C/C=C/C=C/[C@H](O[C@@H]2O[C@H](C)[C@@H](O)[C@H](N)[C@@H]2O)C[C@@H]2O[C@](O)(C[C@@H](O)C[C@@H](O)[C@H](O)CC[C@@H](O)C[C@@H](O)CC(=O)O[C@H]1C)C[C@H](O)[C@H]2C(=O)O` [AMPHOTERICIN B], the values for the minimum inhibitory concentration (MIC) in the experiment with Botrytis cinerea [1] and against Fusarium oxysporum [12] were 12 µg/mL (≈ 13 µM) and 15 µg/mL (≈ 16.2 µM), respectively. For the same compound, the results for the zone of inhibition at 1000 µg/mL with Fusarium oxysporum [2] and in the experiment on Botrytis cinerea [3] were 26 mm and 30 mm, respectively.

For orientation: MIC means the smallest concentration in the dilution series that meets the test's criterion for growth inhibition. A lower MIC goes with inhibition by little substance. As usually defined, the inhibition is the share of the control response that was lost under treatment. As usually defined, the IC50 is the concentration that gives 50% inhibition.

The values are drawn from ChEMBL document CHEMBL3045207, “1-Phenyl-3-toluyl-4-[ortho-1'-(N-ethyl-2'-methylpropylamine)]phenylpyrazole, synthesis and evaluation of the in vitro antifungal activity against Botrytis cinerea and Fusarium oxysporum” (Farmaco, 2004).
